In brackets after ≈: the same amount, converted by molar mass. Counter-ions that a name gives are not always drawn.
Columns and labels:
Assay in all cases: Agar dilution test, minimum inhibitory concentration
Format in all cases: cell-based
Proteus vulg. 1017 = conditions: test strain Proteus vulg. 1017; Isosensitest-Agar (Oxoid), inoculum ca. 10^4 germs per inoculation point; read-out: Minimale Hemmkonzentrationen
Enteroc. 27101 = conditions: test strain Enteroc. 27101; Isosensitest-Agar (Oxoid), inoculum ca. 10^4 germs per inoculation point; read-out: Minimale Hemmkonzentrationen
E.coli 455/7 = conditions: Escherichia coli; test strain E.coli 455/7; Isosensitest-Agar (Oxoid), inoculum ca. 10^4 germs per inoculation point; read-out: Minimale Hemmkonzentrationen
Proteus mir. 8175 = conditions: test strain Proteus mir. 8175; Isosensitest-Agar (Oxoid), inoculum ca. 10^4 germs per inoculation point; read-out: Minimale Hemmkonzentrationen
Enteroc. 9790 = conditions: test strain Enteroc. 9790; Isosensitest-Agar (Oxoid), inoculum ca. 10^4 germs per inoculation point; read-out: Minimale Hemmkonzentrationen
Staph. 133 = conditions: test strain Staph. 133; Isosensitest-Agar (Oxoid), inoculum ca. 10^4 germs per inoculation point; read-out: Minimale Hemmkonzentrationen
Providencia 12052 = conditions: test strain Providencia 12052; Isosensitest-Agar (Oxoid), inoculum ca. 10^4 germs per inoculation point; read-out: Minimale Hemmkonzentrationen
Serratia 16040 = conditions: test strain Serratia 16040; Isosensitest-Agar (Oxoid), inoculum ca. 10^4 germs per inoculation point; read-out: Minimale Hemmkonzentrationen
Morg. morg. 11006 = conditions: test strain Morg. morg. 11006; Isosensitest-Agar (Oxoid), inoculum ca. 10^4 germs per inoculation point; read-out: Minimale Hemmkonzentrationen
E.coli A261 = conditions: Escherichia coli; test strain E.coli A261; Isosensitest-Agar (Oxoid), inoculum ca. 10^4 germs per inoculation point; read-out: Minimale Hemmkonzentrationen
Pseudomonas Walter = conditions: test strain Pseudomonas Walter; Isosensitest-Agar (Oxoid), inoculum ca. 10^4 germs per inoculation point; read-out: Minimale Hemmkonzentrationen
Staph. 1756 = conditions: test strain Staph. 1756; Isosensitest-Agar (Oxoid), inoculum ca. 10^4 germs per inoculation point; read-out: Minimale Hemmkonzentrationen
Proteus mir. 8223 = conditions: test strain Proteus mir. 8223; Isosensitest-Agar (Oxoid), inoculum ca. 10^4 germs per inoculation point; read-out: Minimale Hemmkonzentrationen
Pseudomonas Ellsworth = conditions: test strain Pseudomonas Ellsworth; Isosensitest-Agar (Oxoid), inoculum ca. 10^4 germs per inoculation point; read-out: Minimale Hemmkonzentrationen
Staph. FK 422 = conditions: test strain Staph. FK 422; Isosensitest-Agar (Oxoid), inoculum ca. 10^4 germs per inoculation point; read-out: Minimale Hemmkonzentrationen
Providencia 12012 = conditions: test strain Providencia 12012; Isosensitest-Agar (Oxoid), inoculum ca. 10^4 germs per inoculation point; read-out: Minimale Hemmkonzentrationen
Morg. morg. 932 = conditions: test strain Morg. morg. 932; Isosensitest-Agar (Oxoid), inoculum ca. 10^4 germs per inoculation point; read-out: Minimale Hemmkonzentrationen
Klebsiella 8085 = conditions: test strain Klebsiella 8085; Isosensitest-Agar (Oxoid), inoculum ca. 10^4 germs per inoculation point; read-out: Minimale Hemmkonzentrationen
Klebsiella 63 = conditions: test strain Klebsiella 63; Isosensitest-Agar (Oxoid), inoculum ca. 10^4 germs per inoculation point; read-out: Minimale Hemmkonzentrationen

SMILES | MIC (Proteus vulg. 1017) [µg/mL] | MIC (Enteroc. 27101) [µg/mL] | MIC (E.coli 455/7) [µg/mL] | MIC (Proteus mir. 8175) [µg/mL] | MIC (Enteroc. 9790) [µg/mL] | MIC (Staph. 133) [µg/mL] | MIC (Providencia 12052) [µg/mL] | MIC (Serratia 16040) [µg/mL] | MIC (Morg. morg. 11006) [µg/mL] | MIC (E.coli A261) [µg/mL] | MIC (Pseudomonas Walter) [µg/mL] | MIC (Staph. 1756) [µg/mL] | MIC (Proteus mir. 8223) [µg/mL] | MIC (Pseudomonas Ellsworth) [µg/mL] | MIC (Staph. FK 422) [µg/mL] | MIC (Providencia 12012) [µg/mL] | MIC (Morg. morg. 932) [µg/mL] | MIC (Klebsiella 8085) [µg/mL] | MIC (Klebsiella 63) [µg/mL]
Nc1c(F)c(N2CCNC(c3ccc(F)cc3)C2)c(F)c2c1c(=O)c(C(=O)O)cn2C1CC1 (stereo not shown) [Beispiel 24, 5-Amino-1-cyclopropyl-6,8-difluor-7-[3-(4-fluorphenyl)-1-piperazinyl]-1,4-dihydro-4-oxo-3-chinolincarbonsäure] | 0.06 (≈ 0.131 µM) | 0.25 (≈ 0.545 µM) | 4 (≈ 8.73 µM) | 0.25 (≈ 0.545 µM) | 0.25 (≈ 0.545 µM) | 0.06 (≈ 0.131 µM) | 4 (≈ 8.73 µM) | 8 (≈ 17.5 µM) | 0.25 (≈ 0.545 µM) | 1 (≈ 2.18 µM) | 2 (≈ 4.36 µM) | 0.06 (≈ 0.131 µM) | 2 (≈ 4.36 µM) | 0.25 (≈ 0.545 µM) | – | – | – | – | –
Nc1c(F)c(N2CCC(O)C2)c(F)c2c1c(=O)c(C(=O)O)cn2C1CC1 (stereo not shown) [Beispiel 28, 5-Amino-1-cyclopropyl-6,8-difluor-1,4-dihydro-7-(3-hydroxy-1-pyrrolidinyl)-4-oxo-3-chinolincarbonsäure] | – | 0.03 (≈ 0.0821 µM) | 2 (≈ 5.47 µM) | – | 0.03 (≈ 0.0821 µM) | – | 1 (≈ 2.74 µM) | 1 (≈ 2.74 µM) | – | 0.25 (≈ 0.684 µM) | 0.25 (≈ 0.684 µM) | – | 0.06 (≈ 0.164 µM) | 0.03 (≈ 0.0821 µM) | – | – | – | – | –
Nc1c(F)c(N2CCCC2)c(F)c2c1c(=O)c(C(=O)O)cn2C1CC1 [Beispiel 27, 5-Amino-1-cyclopropyl-6,8-difluor-1,4-dihydro-4-oxo-7-(1-pyrrolidinyl)-3-chinolincarbonsäure] | 0.06 (≈ 0.172 µM) | 0.03 (≈ 0.0859 µM) | 16 (≈ 45.8 µM) | 0.25 (≈ 0.716 µM) | – | – | 8 (≈ 22.9 µM) | 16 (≈ 45.8 µM) | – | 2 (≈ 5.73 µM) | 1 (≈ 2.86 µM) | – | 0.25 (≈ 0.716 µM) | – | – | 0.06 (≈ 0.172 µM) | 0.06 (≈ 0.172 µM) | – | –
Nc1c(F)c(N2CCN3CCC2C3)c(F)c2c1c(=O)c(C(=O)O)cn2C1CC1 (stereo not shown) [Beispiel 25, 5-Amino-1-cyclopropyl-7-(1,4-diazabicyclo[3.2.1]oct-4-yl)-6,8-difluor-1,4-dihydro-4-oxo-3-chinolincarbonsäure] | – | – | 1 (≈ 2.56 µM) | – | – | – | 4 (≈ 10.2 µM) | 4 (≈ 10.2 µM) | 0.03 (≈ 0.0768 µM) | – | 0.5 (≈ 1.28 µM) | – | 1 (≈ 2.56 µM) | 0.03 (≈ 0.0768 µM) | – | 0.06 (≈ 0.154 µM) | – | 0.06 (≈ 0.154 µM) | 0.03 (≈ 0.0768 µM)
Nc1c(F)c(N2CCN(CCO)CC2)c(F)c2c1c(=O)c(C(=O)O)cn2C1CC1 [Beispiel 21] | – | 0.25 (≈ 0.612 µM) | 2 (≈ 4.9 µM) | – | 0.25 (≈ 0.612 µM) | 0.06 (≈ 0.147 µM) | 2 (≈ 4.9 µM) | 4 (≈ 9.79 µM) | – | 0.5 (≈ 1.22 µM) | 1 (≈ 2.45 µM) | 0.06 (≈ 0.147 µM) | 0.5 (≈ 1.22 µM) | – | 0.06 (≈ 0.147 µM) | 0.06 (≈ 0.147 µM) | 0.03 (≈ 0.0735 µM) | 0.06 (≈ 0.147 µM) | 0.06 (≈ 0.147 µM)
CCN1CCN(c2c(F)c(N)c3c(=O)c(C(=O)O)cn(C4CC4)c3c2F)CC1 [Beispiel 20, 5-Amino-1-cyclopropyl-7-(4-ethyl-1-piperazinyl)-6,8-difluor-1.4-dihydro-4-oxo-3-chinolincarbonsäure] | – | 0.25 (≈ 0.637 µM) | 2 (≈ 5.1 µM) | – | 0.25 (≈ 0.637 µM) | 0.06 (≈ 0.153 µM) | 1 (≈ 2.55 µM) | 4 (≈ 10.2 µM) | 0.06 (≈ 0.153 µM) | 0.25 (≈ 0.637 µM) | 1 (≈ 2.55 µM) | 0.06 (≈ 0.153 µM) | 0.25 (≈ 0.637 µM) | 0.03 (≈ 0.0765 µM) | 0.06 (≈ 0.153 µM) | 0.06 (≈ 0.153 µM) | 0.03 (≈ 0.0765 µM) | 0.06 (≈ 0.153 µM) | 0.03 (≈ 0.0765 µM)

More lines, in order of falling MIC (E.coli 455/7), values ahead:

MIC (Proteus vulg. 1017) [µg/mL] | MIC (Enteroc. 27101) [µg/mL] | MIC (E.coli 455/7) [µg/mL] | MIC (Proteus mir. 8175) [µg/mL] | MIC (Enteroc. 9790) [µg/mL] | MIC (Staph. 133) [µg/mL] | MIC (Providencia 12052) [µg/mL] | MIC (Serratia 16040) [µg/mL] | MIC (Morg. morg. 11006) [µg/mL] | MIC (E.coli A261) [µg/mL] | MIC (Pseudomonas Walter) [µg/mL] | MIC (Staph. 1756) [µg/mL] | MIC (Proteus mir. 8223) [µg/mL] | MIC (Pseudomonas Ellsworth) [µg/mL] | MIC (Staph. FK 422) [µg/mL] | MIC (Providencia 12012) [µg/mL] | MIC (Morg. morg. 932) [µg/mL] | MIC (Klebsiella 8085) [µg/mL] | MIC (Klebsiella 63) [µg/mL] | SMILES
– | 0.03 | 1 | 0.06 | 0.03 | 0.03 | 1 | 4 | 0.03 | 0.06 | 1 | 0.03 | 0.5 | 0.03 | 0.03 | 0.03 | – | 0.03 | – | CCNCC1CCN(c2c(F)c(N)c3c(=O)c(C(=O)O)cn(C4CC4)c3c2F)C1 (stereo not shown) [Beispiel 32, 5-Amino-1-cyclopropyl-7-(3-ethylaminomethyl-1-pyrrolidinyl)-6.8-difluor-1,4-dihydro-4-oxo-3-chinolincarbonsäure-hydrochlorid-hydrat]
– | 0.03 (≈ 0.0681 µM) | 1 (≈ 2.27 µM) | 0.06 (≈ 0.136 µM) | 0.06 (≈ 0.136 µM) | – | 1 (≈ 2.27 µM) | 2 (≈ 4.54 µM) | 0.03 (≈ 0.0681 µM) | 0.25 (≈ 0.568 µM) | 1 (≈ 2.27 µM) | – | – | – | – | – | – | 0.03 (≈ 0.0681 µM) | – | Nc1c(F)c(N2CCNC(c3ccccc3)C2)c(F)c2c1c(=O)c(C(=O)O)cn2C1CC1 (stereo not shown) [Beispiel 23, 5-Amino-1-cyclopropyl-6,8-difluor-1,4-dihydro-4-oxo-7-(3-phenyl-1-piperazinyl)-3-chinolincarbonsäure]
– | – | 0.5 (≈ 1.32 µM) | 0.06 (≈ 0.159 µM) | – | 0.03 (≈ 0.0793 µM) | 2 (≈ 5.29 µM) | 2 (≈ 5.29 µM) | – | – | 0.25 (≈ 0.661 µM) | 0.03 (≈ 0.0793 µM) | 0.25 (≈ 0.661 µM) | – | 0.03 (≈ 0.0793 µM) | – | – | – | – | CC1CN(c2c(F)c(N)c3c(=O)c(C(=O)O)cn(C4CC4)c3c2F)CCN1 (stereo not shown) [Beispiel 17, 5-Amino-1-cyclopropyl-6,8-difluor-1,4-dihydro-7-(3-methyl-1-piperazinyl)-4-oxo-3-chinolincarbonsäure]
– | – | 0.5 (≈ 1.27 µM) | 0.06 (≈ 0.153 µM) | 0.25 (≈ 0.637 µM) | 0.03 (≈ 0.0765 µM) | 1 (≈ 2.55 µM) | 2 (≈ 5.1 µM) | 0.03 (≈ 0.0765 µM) | – | 0.5 (≈ 1.27 µM) | 0.03 (≈ 0.0765 µM) | 0.5 (≈ 1.27 µM) | 0.03 (≈ 0.0765 µM) | 0.03 (≈ 0.0765 µM) | 0.03 (≈ 0.0765 µM) | 0.03 (≈ 0.0765 µM) | 0.06 (≈ 0.153 µM) | 0.03 (≈ 0.0765 µM) | C[C@@H]1CN(c2c(F)c(N)c3c(=O)c(C(=O)O)cn(C4CC4)c3c2F)C[C@H](C)N1 [Beispiel 22, 5-Amino-1-cyclopropyl-6,8-difluor-1,4-dihydro-7-(cis-3,5-dimethyl-1-piperazinyl)-4-oxo-3-chinolincarbonsäure]

Reference: patent EP0284935A1, “5-Substituted quinolone- and naphthyridone carboxylic acid derivatives” (BAYER AG, priority 1987, dated 1988)
